In patent US20030144225A1, “Antisense modulation of macrophage inflammatory protein 3-alpha expression” (priority 2001, published 2003):
Strand notation (5' to 3'): a small letter for the sugar, then the base; units joined by * are phosphorothioate-linked, units joined directly phosphodiester-linked; [ ] holds rarer units or linkages, { } end groups; capitals alone tell only the bases. e = 2'-O-(2-methoxyethyl) (MOE); [5mC] = 5-methylcytosine; d = 2'-deoxy (DNA)

Columns and labels:
[1] = test system: human macrophage inflammatory protein 3-alpha mRNA; test: Antisense inhibition of human macrophage inflammatory protein 3-alpha mRNA levels, quantitative real-time PCR (Table 1 screen); type: cell-based; conditions: averages from two experiments, oligonucleotide concentration not given
[2] = test system: human macrophage inflammatory protein 3-alpha mRNA; test: Dose-response inhibition of cytokine-induced macrophage inflammatory protein 3-alpha mRNA expression in NHEK cells; type: cell-based; conditions: 24 Hr after oligonucleotide treatment, percent inhibition of cytokine-induced control, averages from two experiments; for % Inhibition of cytokine induced macrophage inflammatory protein 3-alpha mRNA expression, 50 nM: 50 nM oligonucleotide; for % Inhibition of cytokine induced macrophage inflammatory protein 3-alpha mRNA expression, 100 nM: 100 nM oligonucleotide; for % Inhibition of cytokine induced macrophage inflammatory protein 3-alpha mRNA expression, 200 nM: 200 nM oligonucleotide

150681 (antisense eT*eG*eG*eT*eT*dT*dT*dT*dA*dG*d[5mC]*dT*d[5mC]*dA*dA*eA*eG*eA*eA*e[5mC]) [compound 150681]
% INHIB (inhibition of human macrophage inflammatory protein 3-alpha mRNA levels) [1]: 22%

ISIS 150694: 2′-MOE gapmer, phosphorothioate, 5-methylcytidines; ATGTGATGCTTAAACAAAGC (antisense eA*eT*eG*eT*eG*dA*dT*dG*d[5mC]*dT*dT*dA*dA*dA*d[5mC]*eA*eA*eA*eG*e[5mC])
% INHIB (inhibition of human macrophage inflammatory protein 3-alpha mRNA levels) [1]: at least 20%

150688 (antisense e[5mC]*eT*eT*eG*eG*dG*d[5mC]*dT*dA*dT*dG*dT*d[5mC]*d[5mC]*dA*eA*eT*eT*e[5mC]*e[5mC]) [compound 150688]
% Inhibition of cytokine induced macrophage inflammatory protein 3-alpha mRNA expression, 50 nM [2]: 43%
% Inhibition of cytokine induced macrophage inflammatory protein 3-alpha mRNA expression, 100 nM [2]: 69%
% Inhibition of cytokine induced macrophage inflammatory protein 3-alpha mRNA expression, 200 nM [2]: 80%
% INHIB (inhibition of human macrophage inflammatory protein 3-alpha mRNA levels) [1]: 46%

ISIS 150680: 2′-MOE gapmer, phosphorothioate, 5-methylcytidines; CTCAAAGAACAGATCTGCTC (antisense e[5mC]*eT*e[5mC]*eA*eA*dA*dG*dA*dA*d[5mC]*dA*dG*dA*dT*d[5mC]*eT*eG*e[5mC]*eT*e[5mC])
% INHIB (inhibition of human macrophage inflammatory protein 3-alpha mRNA levels) [1]: at least 20%

150679 (antisense eA*eG*eA*eT*e[5mC]*dT*dG*d[5mC]*dT*d[5mC]*dA*dG*dT*dG*dT*eT*eG*eA*eG*eT) [compound 150679]
% INHIB (inhibition of human macrophage inflammatory protein 3-alpha mRNA levels) [1]: 16%

150692 (antisense eG*e[5mC]*eA*eA*eT*dA*dT*dG*dA*dA*dT*d[5mC]*dA*dA*d[5mC]*eT*eT*e[5mC]*eA*eT) [compound 150692]
% Inhibition of cytokine induced macrophage inflammatory protein 3-alpha mRNA expression, 50 nM [2]: 34%
% Inhibition of cytokine induced macrophage inflammatory protein 3-alpha mRNA expression, 100 nM [2]: 59%
% Inhibition of cytokine induced macrophage inflammatory protein 3-alpha mRNA expression, 200 nM [2]: 73%
% INHIB (inhibition of human macrophage inflammatory protein 3-alpha mRNA levels) [1]: 39%

ISIS 150693: 2′-MOE gapmer, phosphorothioate, 5-methylcytidines; ACTATGATGCAATATGAATC (antisense eA*e[5mC]*eT*eA*eT*dG*dA*dT*dG*d[5mC]*dA*dA*dT*dA*dT*eG*eA*eA*eT*e[5mC])
% INHIB (inhibition of human macrophage inflammatory protein 3-alpha mRNA levels) [1]: at least 20%

150678 (antisense eA*eG*eT*eG*eT*dT*dG*dA*dG*dT*dA*d[5mC]*d[5mC]*d[5mC]*dA*eG*eT*eT*e[5mC]*eT) [compound 150678]
% INHIB (inhibition of human macrophage inflammatory protein 3-alpha mRNA levels) [1]: 34%

150693 (antisense eA*e[5mC]*eT*eA*eT*dG*dA*dT*dG*d[5mC]*dA*dA*dT*dA*dT*eG*eA*eA*eT*e[5mC]) [compound 150693]
% Inhibition of cytokine induced macrophage inflammatory protein 3-alpha mRNA expression, 50 nM [2]: 25%
% Inhibition of cytokine induced macrophage inflammatory protein 3-alpha mRNA expression, 100 nM [2]: 58%
% Inhibition of cytokine induced macrophage inflammatory protein 3-alpha mRNA expression, 200 nM [2]: 63%
% INHIB (inhibition of human macrophage inflammatory protein 3-alpha mRNA levels) [1]: 29%

150694 (antisense eA*eT*eG*eT*eG*dA*dT*dG*d[5mC]*dT*dT*dA*dA*dA*d[5mC]*eA*eA*eA*eG*e[5mC]) [compound 150694]
% INHIB (inhibition of human macrophage inflammatory protein 3-alpha mRNA levels) [1]: 30%

ISIS 150696: 2′-MOE gapmer, phosphorothioate, 5-methylcytidines; GCACTAAACCAAAATAGCTT (antisense eG*e[5mC]*eA*e[5mC]*eT*dA*dA*dA*d[5mC]*d[5mC]*dA*dA*dA*dA*dT*eA*eG*e[5mC]*eT*eT)
% INHIB (inhibition of human macrophage inflammatory protein 3-alpha mRNA levels) [1]: at least 20%

150685 (antisense eG*eT*eG*eT*eG*dA*dA*dA*dG*dA*dT*dG*dA*dT*dA*eG*e[5mC]*eA*eT*eT) [compound 150685]
% INHIB (inhibition of human macrophage inflammatory protein 3-alpha mRNA levels) [1]: 0%

150687 (antisense eG*eT*e[5mC]*e[5mC]*eA*dA*dT*dT*d[5mC]*d[5mC]*dA*dT*dT*d[5mC]*d[5mC]*eA*eG*eA*eA*eA) [compound 150687]
% Inhibition of cytokine induced macrophage inflammatory protein 3-alpha mRNA expression, 50 nM [2]: 19%
% Inhibition of cytokine induced macrophage inflammatory protein 3-alpha mRNA expression, 100 nM [2]: 51%
% Inhibition of cytokine induced macrophage inflammatory protein 3-alpha mRNA expression, 200 nM [2]: 65%
% INHIB (inhibition of human macrophage inflammatory protein 3-alpha mRNA levels) [1]: 34%

ISIS 150688: 2′-MOE gapmer, phosphorothioate, 5-methylcytidines; CTTGGGCTATGTCCAATTCC (antisense e[5mC]*eT*eT*eG*eG*dG*d[5mC]*dT*dA*dT*dG*dT*d[5mC]*d[5mC]*dA*eA*eT*eT*e[5mC]*e[5mC])
% INHIB (inhibition of human macrophage inflammatory protein 3-alpha mRNA levels) [1]: at least 20%

ISIS 150689: 2′-MOE gapmer, phosphorothioate, 5-methylcytidines; CAAGGTTCTTTCTGTTCTTG (antisense e[5mC]*eA*eA*eG*eG*dT*dT*d[5mC]*dT*dT*dT*d[5mC]*dT*dG*dT*eT*e[5mC]*eT*eT*eG)
% INHIB (inhibition of human macrophage inflammatory protein 3-alpha mRNA levels) [1]: at least 20%

ISIS 150681: 2′-MOE gapmer, phosphorothioate, 5-methylcytidines; TGGTTTTTAGCTCAAAGAAC (antisense eT*eG*eG*eT*eT*dT*dT*dT*dA*dG*d[5mC]*dT*d[5mC]*dA*dA*eA*eG*eA*eA*e[5mC])
% INHIB (inhibition of human macrophage inflammatory protein 3-alpha mRNA levels) [1]: at least 20%

150695 (antisense e[5mC]*eA*e[5mC]*eA*eG*dA*dA*dA*dA*d[5mC]*d[5mC]*dT*dA*d[5mC]*dA*eG*e[5mC]*eT*eA*eT) [compound 150695]
% INHIB (inhibition of human macrophage inflammatory protein 3-alpha mRNA levels) [1]: 11%

ISIS 150690: 2′-MOE gapmer, phosphorothioate, 5-methylcytidines; CTGAAACCTCCAACCCCAGC
% INHIB (inhibition of human macrophage inflammatory protein 3-alpha mRNA levels) [1]: at least 20%

150680 (antisense e[5mC]*eT*e[5mC]*eA*eA*dA*dG*dA*dA*d[5mC]*dA*dG*dA*dT*d[5mC]*eT*eG*e[5mC]*eT*e[5mC]) [compound 150680]
% Inhibition of cytokine induced macrophage inflammatory protein 3-alpha mRNA expression, 50 nM [2]: 13%
% Inhibition of cytokine induced macrophage inflammatory protein 3-alpha mRNA expression, 100 nM [2]: 47%
% Inhibition of cytokine induced macrophage inflammatory protein 3-alpha mRNA expression, 200 nM [2]: 68%
% INHIB (inhibition of human macrophage inflammatory protein 3-alpha mRNA levels) [1]: 41%

ISIS 150682: 2′-MOE gapmer, phosphorothioate, 5-methylcytidines; GTACAGCACATGGTTTTAG
% INHIB (inhibition of human macrophage inflammatory protein 3-alpha mRNA levels) [1]: at least 20%

ISIS 150698: 2′-MOE gapmer, phosphorothioate, 5-methylcytidines; GCAATTACAACAATTTAGGA (antisense eG*e[5mC]*eA*eA*eT*dT*dA*d[5mC]*dA*dA*d[5mC]*dA*dA*dT*dT*eT*eA*eG*eG*eA)
% INHIB (inhibition of human macrophage inflammatory protein 3-alpha mRNA levels) [1]: at least 20%

150683 (antisense eA*eA*eG*eT*eT*dG*d[5mC]*dT*dT*dG*d[5mC]*dT*dG*d[5mC]*dT*eT*e[5mC]*eT*eG*eA) [compound 150683]
% INHIB (inhibition of human macrophage inflammatory protein 3-alpha mRNA levels) [1]: 15%

150684 (antisense e[5mC]*eA*eG*e[5mC]*eA*dG*dT*d[5mC]*dA*dA*dA*dG*dT*dT*dG*e[5mC]*eT*eT*eG*e[5mC]) [compound 150684]
% INHIB (inhibition of human macrophage inflammatory protein 3-alpha mRNA levels) [1]: 15%

ISIS 150678: 2′-MOE gapmer, phosphorothioate, 5-methylcytidines; AGTGTTGAGTACCCAGTTCT (antisense eA*eG*eT*eG*eT*dT*dG*dA*dG*dT*dA*d[5mC]*d[5mC]*d[5mC]*dA*eG*eT*eT*e[5mC]*eT)
% INHIB (inhibition of human macrophage inflammatory protein 3-alpha mRNA levels) [1]: at least 20%

ISIS 150687: 2′-MOE gapmer, phosphorothioate, 5-methylcytidines; GTCCAATTCCATTCCAGAAA (antisense eG*eT*e[5mC]*e[5mC]*eA*dA*dT*dT*d[5mC]*d[5mC]*dA*dT*dT*d[5mC]*d[5mC]*eA*eG*eA*eA*eA)
% INHIB (inhibition of human macrophage inflammatory protein 3-alpha mRNA levels) [1]: at least 20%

150696 (antisense eG*e[5mC]*eA*e[5mC]*eT*dA*dA*dA*d[5mC]*d[5mC]*dA*dA*dA*dA*dT*eA*eG*e[5mC]*eT*eT) [compound 150696]
% INHIB (inhibition of human macrophage inflammatory protein 3-alpha mRNA levels) [1]: 27%

ISIS 150692: 2′-MOE gapmer, phosphorothioate, 5-methylcytidines; GCAATATGAATCAACTTCAT (antisense eG*e[5mC]*eA*eA*eT*dA*dT*dG*dA*dA*dT*d[5mC]*dA*dA*d[5mC]*eT*eT*e[5mC]*eA*eT)
% INHIB (inhibition of human macrophage inflammatory protein 3-alpha mRNA levels) [1]: at least 20%

150698 (antisense eG*e[5mC]*eA*eA*eT*dT*dA*d[5mC]*dA*dA*d[5mC]*dA*dA*dT*dT*eT*eA*eG*eG*eA) [compound 150698]
% INHIB (inhibition of human macrophage inflammatory protein 3-alpha mRNA levels) [1]: 21%

150677 (antisense eT*eA*e[5mC]*e[5mC]*e[5mC]*dA*dG*dT*dT*d[5mC]*dT*dT*dT*dG*dG*eG*eA*eG*eT*eG) [compound 150677]
% INHIB (inhibition of human macrophage inflammatory protein 3-alpha mRNA levels) [1]: 0%

150686 (antisense eA*eT*eT*e[5mC]*e[5mC]*dA*dG*dA*dA*dA*dA*dG*d[5mC]*d[5mC]*dA*e[5mC]*eA*eG*eT*eT) [compound 150686]
% INHIB (inhibition of human macrophage inflammatory protein 3-alpha mRNA levels) [1]: 1%

150689 (antisense e[5mC]*eA*eA*eG*eG*dT*dT*d[5mC]*dT*dT*dT*d[5mC]*dT*dG*dT*eT*e[5mC]*eT*eT*eG) [compound 150689]
% Inhibition of cytokine induced macrophage inflammatory protein 3-alpha mRNA expression, 50 nM [2]: 16%
% Inhibition of cytokine induced macrophage inflammatory protein 3-alpha mRNA expression, 100 nM [2]: 60%
% Inhibition of cytokine induced macrophage inflammatory protein 3-alpha mRNA expression, 200 nM [2]: 77%
% INHIB (inhibition of human macrophage inflammatory protein 3-alpha mRNA levels) [1]: 41%

150697 (antisense eG*e[5mC]*eA*eA*eG*dA*dA*dA*dG*dT*d[5mC]*d[5mC]*dA*dT*dA*eT*eA*eA*eT*e[5mC]) [compound 150697]
% INHIB (inhibition of human macrophage inflammatory protein 3-alpha mRNA levels) [1]: 18%
